Experimental data from ChEMBL document CHEMBL4507277.

What was measured:
[1] = biological target: Maternal embryonic leucine zipper kinase (Homo sapiens) (UniProt Q14680); conditions: Compound concentration 1000.0 nM
[2] = biological target: Serine/threonine-protein kinase PAK 1 (Homo sapiens) (UniProt Q13153); conditions: Compound concentration 1000.0 nM
[3] = biological target: Macrophage colony-stimulating factor 1 receptor (Homo sapiens) (UniProt P07333); conditions: Compound concentration 1000.0 nM
[4] = biological target: Tyrosine-protein kinase Blk (Homo sapiens) (UniProt P51451); conditions: Compound concentration 1000.0 nM
Sequence of Tyrosine-protein kinase Blk (Homo sapiens) (P51451 2-505 limits assumed): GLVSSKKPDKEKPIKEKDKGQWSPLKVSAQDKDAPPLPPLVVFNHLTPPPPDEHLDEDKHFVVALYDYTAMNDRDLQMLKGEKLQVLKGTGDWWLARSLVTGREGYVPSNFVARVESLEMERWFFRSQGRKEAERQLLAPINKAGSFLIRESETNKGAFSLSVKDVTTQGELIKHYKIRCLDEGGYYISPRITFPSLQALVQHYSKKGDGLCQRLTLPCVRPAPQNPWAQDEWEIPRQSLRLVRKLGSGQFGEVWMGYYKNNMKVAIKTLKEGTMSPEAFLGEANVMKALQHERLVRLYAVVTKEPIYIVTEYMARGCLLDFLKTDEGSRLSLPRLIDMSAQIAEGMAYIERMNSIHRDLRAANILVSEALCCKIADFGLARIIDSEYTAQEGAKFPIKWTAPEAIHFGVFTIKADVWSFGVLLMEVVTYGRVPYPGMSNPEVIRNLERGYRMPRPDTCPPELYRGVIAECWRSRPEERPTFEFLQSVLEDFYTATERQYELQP

[5] = biological target: Aurora kinase C (Homo sapiens) (UniProt Q9UQB9); conditions: Compound concentration 1000.0 nM
[6] = biological target: cAMP-dependent protein kinase catalytic subunit alpha (Homo sapiens) (UniProt P17612); conditions: Compound concentration 1000.0 nM
[7] = biological target: Ribosomal protein S6 kinase alpha-1 (Homo sapiens) (UniProt Q15418); conditions: Compound concentration 1000.0 nM
[8] = biological target: Serine/threonine-protein kinase PRP4 homolog (Homo sapiens) (UniProt Q13523); conditions: Compound concentration 1000.0 nM
[9] = biological target: Megakaryocyte-associated tyrosine-protein kinase (Homo sapiens) (UniProt P42679); conditions: Compound concentration 1000.0 nM
[10] = tested on: ALK tyrosine kinase receptor (Homo sapiens), Q9UM73 [C1156Y]; conditions: Compound concentration 1000.0 nM
[11] = biological target: Rho-associated protein kinase 2 (Homo sapiens) (UniProt O75116); conditions: Compound concentration 1000.0 nM
[12] = biological target: Rhodopsin kinase GRK7 (Homo sapiens) (UniProt Q8WTQ7); conditions: Compound concentration 1000.0 nM
[13] = biological target: Serine/threonine-protein kinase TBK1 (Homo sapiens) (UniProt Q9UHD2); conditions: Compound concentration 1000.0 nM
[14] = biological target: Casein kinase II subunit alpha (Homo sapiens) (UniProt P68400); conditions: Compound concentration 1000.0 nM
[15] = biological target: Muscle, skeletal receptor tyrosine-protein kinase (Homo sapiens) (UniProt O15146); conditions: Compound concentration 1000.0 nM
[16] = biological target: Vascular endothelial growth factor receptor 3 (Homo sapiens) (UniProt P35916); conditions: Compound concentration 1000.0 nM
[17] = biological target: Serine/threonine-protein kinase PAK 2 (Homo sapiens) (UniProt Q13177); conditions: Compound concentration 1000.0 nM
[18] = tested on: Tyrosine-protein kinase ABL1 (Homo sapiens), P00519 [Y253F]; conditions: Compound concentration 1000.0 nM
[19] = biological target: Tyrosine-protein kinase Mer (Homo sapiens) (UniProt Q12866); conditions: Compound concentration 1000.0 nM
Sequence of Tyrosine-protein kinase Mer (Homo sapiens) (Q12866 whole entry): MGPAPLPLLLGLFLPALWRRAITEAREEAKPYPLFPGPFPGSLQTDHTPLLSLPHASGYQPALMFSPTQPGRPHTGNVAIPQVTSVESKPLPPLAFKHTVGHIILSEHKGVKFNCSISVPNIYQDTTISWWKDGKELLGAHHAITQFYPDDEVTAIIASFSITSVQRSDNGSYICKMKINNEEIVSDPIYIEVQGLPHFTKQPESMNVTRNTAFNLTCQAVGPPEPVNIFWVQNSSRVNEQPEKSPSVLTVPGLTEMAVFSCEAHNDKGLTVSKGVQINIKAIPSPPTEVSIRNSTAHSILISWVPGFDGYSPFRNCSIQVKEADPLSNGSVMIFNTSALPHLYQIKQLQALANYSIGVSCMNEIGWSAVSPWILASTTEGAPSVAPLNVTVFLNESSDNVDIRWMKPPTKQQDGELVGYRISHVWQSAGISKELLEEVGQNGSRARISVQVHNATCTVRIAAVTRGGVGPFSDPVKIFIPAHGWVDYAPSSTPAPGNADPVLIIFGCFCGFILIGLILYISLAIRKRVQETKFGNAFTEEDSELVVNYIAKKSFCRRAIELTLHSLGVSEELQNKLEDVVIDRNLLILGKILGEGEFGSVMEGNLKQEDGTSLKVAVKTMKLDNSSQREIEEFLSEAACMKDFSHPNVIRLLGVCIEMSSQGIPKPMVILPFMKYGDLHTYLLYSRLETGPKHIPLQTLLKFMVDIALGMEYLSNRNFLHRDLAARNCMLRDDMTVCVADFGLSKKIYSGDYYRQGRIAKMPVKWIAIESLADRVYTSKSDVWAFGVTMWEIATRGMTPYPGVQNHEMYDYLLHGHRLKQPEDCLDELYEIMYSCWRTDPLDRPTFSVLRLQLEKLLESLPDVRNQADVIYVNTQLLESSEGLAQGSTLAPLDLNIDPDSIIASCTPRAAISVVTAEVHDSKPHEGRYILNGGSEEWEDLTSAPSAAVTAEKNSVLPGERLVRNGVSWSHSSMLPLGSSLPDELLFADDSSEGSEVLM

[20] = biological target: Serine/threonine-protein kinase 10 (Homo sapiens) (UniProt O94804); conditions: Compound concentration 1000.0 nM
[21] = biological target: Calcium/calmodulin-dependent protein kinase type II subunit alpha (Homo sapiens) (UniProt Q9UQM7); conditions: Compound concentration 1000.0 nM
[22] = tested on: Epidermal growth factor receptor (Homo sapiens), P00533 [UNDEFINED MUTATION]; conditions: Compound concentration 1000.0 nM
Sequence of Epidermal growth factor receptor (Homo sapiens), P00533 [UNDEFINED MUTATION] (P00533 whole entry, looked up, change not shown): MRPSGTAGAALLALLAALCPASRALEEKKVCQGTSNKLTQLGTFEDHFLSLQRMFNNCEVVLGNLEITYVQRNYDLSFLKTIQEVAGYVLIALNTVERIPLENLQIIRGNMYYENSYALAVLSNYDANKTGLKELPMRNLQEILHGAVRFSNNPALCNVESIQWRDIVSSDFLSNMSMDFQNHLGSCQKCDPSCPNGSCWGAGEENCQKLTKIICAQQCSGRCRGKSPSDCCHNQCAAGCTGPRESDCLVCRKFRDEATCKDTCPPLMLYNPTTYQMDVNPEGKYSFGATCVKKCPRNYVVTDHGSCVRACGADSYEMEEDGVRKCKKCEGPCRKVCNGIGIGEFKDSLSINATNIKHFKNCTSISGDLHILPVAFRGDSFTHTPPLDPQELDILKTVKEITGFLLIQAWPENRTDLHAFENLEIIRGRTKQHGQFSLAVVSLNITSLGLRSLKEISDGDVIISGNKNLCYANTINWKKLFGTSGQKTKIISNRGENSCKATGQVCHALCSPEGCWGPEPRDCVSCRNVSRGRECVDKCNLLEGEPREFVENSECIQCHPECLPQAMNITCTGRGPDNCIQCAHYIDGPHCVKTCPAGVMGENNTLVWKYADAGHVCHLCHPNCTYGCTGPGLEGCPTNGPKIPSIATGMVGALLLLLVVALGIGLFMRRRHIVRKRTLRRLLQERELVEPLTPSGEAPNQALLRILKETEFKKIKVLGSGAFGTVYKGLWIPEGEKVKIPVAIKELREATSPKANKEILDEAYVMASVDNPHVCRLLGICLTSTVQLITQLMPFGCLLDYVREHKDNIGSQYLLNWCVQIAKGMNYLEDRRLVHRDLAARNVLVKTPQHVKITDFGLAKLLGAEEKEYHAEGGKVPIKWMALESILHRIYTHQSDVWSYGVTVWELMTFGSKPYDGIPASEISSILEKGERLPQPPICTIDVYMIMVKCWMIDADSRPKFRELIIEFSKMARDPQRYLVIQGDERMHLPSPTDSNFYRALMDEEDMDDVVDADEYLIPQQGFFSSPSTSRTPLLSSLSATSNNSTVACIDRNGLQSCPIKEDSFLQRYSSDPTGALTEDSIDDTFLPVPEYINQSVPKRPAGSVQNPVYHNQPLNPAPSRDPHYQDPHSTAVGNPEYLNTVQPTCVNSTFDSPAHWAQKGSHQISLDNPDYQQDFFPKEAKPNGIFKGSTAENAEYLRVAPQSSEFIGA

[23] = biological target: Alpha-2A adrenergic receptor (Homo sapiens) (UniProt P08913); conditions: Compound concentration 10.0 uM
[24] = biological target: Phosphorylase b kinase regulatory subunit alpha, liver isoform (Homo sapiens) (UniProt P46019); conditions: Compound concentration 1000.0 nM
[25] = biological target: Serine/threonine-protein kinase OSR1 (Homo sapiens) (UniProt O95747); conditions: Compound concentration 1000.0 nM
Sequence of Serine/threonine-protein kinase OSR1 (Homo sapiens) (O95747 2-527 limits assumed): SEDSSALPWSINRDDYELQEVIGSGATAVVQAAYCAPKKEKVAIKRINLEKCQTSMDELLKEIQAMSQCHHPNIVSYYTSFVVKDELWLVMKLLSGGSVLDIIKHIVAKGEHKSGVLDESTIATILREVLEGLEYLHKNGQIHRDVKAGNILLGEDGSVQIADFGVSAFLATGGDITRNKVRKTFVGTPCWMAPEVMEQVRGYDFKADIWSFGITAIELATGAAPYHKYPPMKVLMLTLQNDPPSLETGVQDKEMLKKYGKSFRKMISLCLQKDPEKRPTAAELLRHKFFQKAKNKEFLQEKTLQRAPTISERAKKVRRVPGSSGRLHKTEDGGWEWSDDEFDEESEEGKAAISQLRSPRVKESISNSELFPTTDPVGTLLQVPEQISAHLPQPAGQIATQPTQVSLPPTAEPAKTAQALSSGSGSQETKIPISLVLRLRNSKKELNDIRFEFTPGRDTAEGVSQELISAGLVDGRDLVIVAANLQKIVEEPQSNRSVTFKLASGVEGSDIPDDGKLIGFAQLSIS

[26] = biological target: Calcium/calmodulin-dependent protein kinase kinase 1 (Homo sapiens) (UniProt Q8N5S9); conditions: Compound concentration 1000.0 nM
[27] = biological target: Tyrosine-protein kinase ABL1 (Homo sapiens) (UniProt P00519); conditions: Compound concentration 1000.0 nM
[28] = biological target: 5-hydroxytryptamine receptor 2B (Homo sapiens) (UniProt P41595); conditions: Compound concentration 10.0 uM
[29] = biological target: 5'-AMP-activated protein kinase catalytic subunit alpha-2 (Homo sapiens) (UniProt P54646); conditions: Compound concentration 1000.0 nM
[30] = biological target: G protein-coupled receptor kinase 3 (Homo sapiens) (UniProt P35626); conditions: Compound concentration 1000.0 nM
[31] = biological target: Serine/threonine-protein kinase NIM1 (Homo sapiens) (UniProt Q8IY84); conditions: Compound concentration 1000.0 nM
[32] = biological target: RAC-alpha serine/threonine-protein kinase (Homo sapiens) (UniProt P31749); conditions: Compound concentration 1000.0 nM
[33] = biological target: Mitogen-activated protein kinase 6 (Homo sapiens) (UniProt Q16659); conditions: Compound concentration 1000.0 nM
[34] = tested on: Receptor-type tyrosine-protein kinase FLT3 (Homo sapiens), P36888 [N841I]; conditions: Compound concentration 1000.0 nM
[35] = tested on: Epidermal growth factor receptor (Homo sapiens), P00533 [UNDEFINED MUTATION]; conditions: Compound concentration 1000.0 nM; remark: listed apart in the source
[36] = biological target: Serine/threonine-protein kinase pim-3 (Homo sapiens) (UniProt Q86V86); conditions: Compound concentration 1000.0 nM
[37] = biological target: Dual specificity testis-specific protein kinase 1 (Homo sapiens) (UniProt Q15569); conditions: Compound concentration 1000.0 nM
[38] = biological target: Mitogen-activated protein kinase kinase kinase 4 (Homo sapiens) (UniProt Q9Y6R4); conditions: Compound concentration 1000.0 nM
Sequence of Mitogen-activated protein kinase kinase kinase 4 (Homo sapiens) (Q9Y6R4 whole entry): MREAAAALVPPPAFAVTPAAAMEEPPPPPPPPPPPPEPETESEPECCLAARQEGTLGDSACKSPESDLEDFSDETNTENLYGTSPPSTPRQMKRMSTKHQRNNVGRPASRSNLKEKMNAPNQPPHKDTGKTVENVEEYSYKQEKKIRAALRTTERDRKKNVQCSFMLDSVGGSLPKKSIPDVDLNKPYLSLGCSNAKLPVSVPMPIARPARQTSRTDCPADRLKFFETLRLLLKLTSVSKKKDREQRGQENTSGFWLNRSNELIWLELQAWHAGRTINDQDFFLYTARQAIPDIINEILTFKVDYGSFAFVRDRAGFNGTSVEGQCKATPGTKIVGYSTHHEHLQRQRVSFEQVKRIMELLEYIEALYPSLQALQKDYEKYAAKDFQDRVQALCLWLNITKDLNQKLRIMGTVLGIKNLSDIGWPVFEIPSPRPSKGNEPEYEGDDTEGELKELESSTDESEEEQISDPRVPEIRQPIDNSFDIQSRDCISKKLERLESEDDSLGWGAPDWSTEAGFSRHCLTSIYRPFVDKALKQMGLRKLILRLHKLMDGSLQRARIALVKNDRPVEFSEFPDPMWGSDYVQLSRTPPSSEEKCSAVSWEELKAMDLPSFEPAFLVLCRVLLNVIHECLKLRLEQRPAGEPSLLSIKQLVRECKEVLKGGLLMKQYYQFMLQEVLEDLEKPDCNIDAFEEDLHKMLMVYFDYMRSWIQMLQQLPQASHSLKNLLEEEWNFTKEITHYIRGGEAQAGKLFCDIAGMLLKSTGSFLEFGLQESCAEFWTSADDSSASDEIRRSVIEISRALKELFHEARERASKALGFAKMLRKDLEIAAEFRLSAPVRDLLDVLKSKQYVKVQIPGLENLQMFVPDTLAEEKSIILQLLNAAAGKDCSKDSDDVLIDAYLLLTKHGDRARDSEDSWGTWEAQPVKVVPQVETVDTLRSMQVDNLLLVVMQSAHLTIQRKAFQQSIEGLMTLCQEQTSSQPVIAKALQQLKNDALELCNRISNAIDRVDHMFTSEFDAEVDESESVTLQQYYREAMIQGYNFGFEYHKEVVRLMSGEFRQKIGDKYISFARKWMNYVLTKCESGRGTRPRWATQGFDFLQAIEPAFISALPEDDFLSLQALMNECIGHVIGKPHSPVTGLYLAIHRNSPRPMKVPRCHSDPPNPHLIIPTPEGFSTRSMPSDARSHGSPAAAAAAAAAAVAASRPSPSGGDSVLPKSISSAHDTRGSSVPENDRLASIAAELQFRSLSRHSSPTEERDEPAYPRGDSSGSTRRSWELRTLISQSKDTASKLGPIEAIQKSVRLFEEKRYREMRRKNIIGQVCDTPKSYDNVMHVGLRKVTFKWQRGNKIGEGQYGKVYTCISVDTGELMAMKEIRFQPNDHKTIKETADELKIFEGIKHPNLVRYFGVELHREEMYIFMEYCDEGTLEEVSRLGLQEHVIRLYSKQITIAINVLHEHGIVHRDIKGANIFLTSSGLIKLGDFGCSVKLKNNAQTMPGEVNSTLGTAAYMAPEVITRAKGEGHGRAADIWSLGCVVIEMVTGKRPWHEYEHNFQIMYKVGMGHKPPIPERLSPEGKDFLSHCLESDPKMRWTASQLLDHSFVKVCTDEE

[39] = biological target: Mitogen-activated protein kinase kinase kinase 7 (Homo sapiens) (UniProt O43318); conditions: Compound concentration 1000.0 nM
[40] = biological target: Serine/threonine-protein kinase ULK2 (Homo sapiens) (UniProt Q8IYT8); conditions: Compound concentration 1000.0 nM
[41] = biological target: Mitogen-activated protein kinase kinase kinase kinase 2 (Homo sapiens) (UniProt Q12851); conditions: Compound concentration 1000.0 nM
[42] = biological target: Phosphatidylinositol 4,5-bisphosphate 3-kinase catalytic subunit gamma isoform (Homo sapiens) (UniProt P48736); conditions: Compound concentration 1000.0 nM
[43] = tested on: Tyrosine-protein kinase ABL1 (Homo sapiens), P00519 [H396P]; conditions: Compound concentration 1000.0 nM
[44] = biological target: Tyrosine-protein kinase ABL1 (Homo sapiens) (UniProt P00519); conditions: Compound concentration 1000.0 nM; remark: listed apart in the source
[45] = biological target: Eukaryotic translation initiation factor 2-alpha kinase 1 (Homo sapiens) (UniProt Q9BQI3); conditions: Compound concentration 1000.0 nM

Q: Which residual activity [1] does the source give for CCS(=O)(=O)c1cc2cc(C[C@](O)(CC(C)(C)c3ccc(F)cc3C(N)=O)C(F)(F)F)[nH]c2cn1 here?
A: 100%

Q: And the residual activity [2]?
A: 95%

Q: And the residual activity [3]?
A: 100%

Q: What about the residual activity [4] of the same molecule?
A: 100%

Q: And the residual activity [5]?
A: 91%

Q: What about the residual activity [6] of the same molecule?
A: 100%

Q: What about the residual activity [7] of the same molecule?
A: 87%

Q: And the residual activity [8]?
A: 98%

Q: And the residual activity [9]?
A: 100%

Q: What about the residual activity [10] of the same molecule?
A: 96%

Q: What about the residual activity [11] of the same molecule?
A: 100%

Q: What about the residual activity [12] of the same molecule?
A: 100%

Q: And the residual activity [13]?
A: 93%

Q: What about the residual activity [14] of the same molecule?
A: 100%

Q: What about the residual activity [15] of the same molecule?
A: 94%

Q: And the residual activity [16]?
A: 95%

Q: What about the residual activity [17] of the same molecule?
A: 86%

Q: And the residual activity [18]?
A: 93%

Q: What about the residual activity [19] of the same molecule?
A: 100%

Q: And the residual activity [20]?
A: 100%

Q: And the residual activity [21]?
A: 94%

Q: What about the residual activity [22] of the same molecule?
A: 83%

Q: What about the inhibition [23] of the same molecule?
A: -4.94%

Q: And the residual activity [24]?
A: 100%

Q: And the residual activity [25]?
A: 90%

Q: What about the residual activity [26] of the same molecule?
A: 100%

Q: And the residual activity [27]?
A: 100%

Q: What about the inhibition [28] of the same molecule?
A: 26.1%

Q: What about the residual activity [29] of the same molecule?
A: 97%

Q: What about the residual activity [30] of the same molecule?
A: 100%

Q: And the residual activity [31]?
A: 100%

Q: And the residual activity [32]?
A: 100%

Q: What about the residual activity [33] of the same molecule?
A: 100%

Q: What about the residual activity [34] of the same molecule?
A: 93%

Q: What about the residual activity [35] of the same molecule?
A: 93%

Q: And the residual activity [36]?
A: 100%

Q: What about the residual activity [37] of the same molecule?
A: 100%

Q: What about the residual activity [38] of the same molecule?
A: 93%

Q: What about the residual activity [39] of the same molecule?
A: 100%

Q: And the residual activity [40]?
A: 100%

Q: What about the residual activity [41] of the same molecule?
A: 96%

Q: And the residual activity [42]?
A: 80%

Q: What about the residual activity [43] of the same molecule?
A: 89%

Q: What about the residual activity [44] of the same molecule?
A: 100%

Q: What about the residual activity [45] of the same molecule?
A: 100%

Q: For CCS(=O)(=O)c1cc2cc(C[C@@](O)(CC(C)(C)c3ccc(F)cc3C(N)=O)C(F)(F)F)[nH]c2cn1, which residual activity [1] is on record?
A: 100%

Q: And the residual activity [2]?
A: 100%

Q: And the residual activity [3]?
A: 100%

Q: And the residual activity [4]?
A: 100%

Q: What about the residual activity [5] of the same molecule?
A: 81%

Q: And the residual activity [6]?
A: 100%

Q: And the residual activity [7]?
A: 0%

Q: What about the residual activity [8] of the same molecule?
A: 80%

Q: And the residual activity [9]?
A: 100%

Q: And the residual activity [10]?
A: 100%

Q: What about the residual activity [11] of the same molecule?
A: 76%

Q: And the residual activity [12]?
A: 95%

Q: What about the residual activity [13] of the same molecule?
A: 87%

Q: And the residual activity [14]?
A: 75%

Q: And the residual activity [15]?
A: 60%

Q: And the residual activity [16]?
A: 90%

Q: And the residual activity [17]?
A: 94%

Q: And the residual activity [18]?
A: 72%

Q: And the residual activity [19]?
A: 100%

Q: What about the residual activity [20] of the same molecule?
A: 100%

Q: What about the residual activity [21] of the same molecule?
A: 100%

Q: What about the residual activity [22] of the same molecule?
A: 69%

Q: What about the inhibition [23] of the same molecule?
A: -5.76%

Q: What about the residual activity [24] of the same molecule?
A: 100%

Q: What about the residual activity [25] of the same molecule?
A: 88%

Q: What about the residual activity [26] of the same molecule?
A: 87%

Q: And the residual activity [27]?
A: 71%

Q: What about the inhibition [28] of the same molecule?
A: -7.85%

Q: What about the residual activity [29] of the same molecule?
A: 100%

Q: And the residual activity [30]?
A: 73%

Q: And the residual activity [31]?
A: 51%

Q: And the residual activity [32]?
A: 86%

Q: What about the residual activity [33] of the same molecule?
A: 72%

Q: And the residual activity [34]?
A: 100%

Q: And the residual activity [35]?
A: 79%

Q: What about the residual activity [36] of the same molecule?
A: 100%

Q: What about the residual activity [37] of the same molecule?
A: 77%

Q: What about the residual activity [38] of the same molecule?
A: 93%

Q: And the residual activity [39]?
A: 92%

Q: And the residual activity [40]?
A: 85%

Q: What about the residual activity [41] of the same molecule?
A: 80%

Q: And the residual activity [42]?
A: 78%

Q: What about the residual activity [43] of the same molecule?
A: 99%

Q: And the residual activity [44]?
A: 99%

Q: What about the residual activity [45] of the same molecule?
A: 80%
